Columns and labels:
Format in all cases: cell-based, human
[1] = test system: 5-HT receptor 4, transcript variant hb, mRNA (HTR4); assay: Microarray gene expression in CD3+ lymphocytes, HTR4 transcript variant hb; conditions: naltrexone 10 nM, 4 h, probe 1808258
Method: (§1) CD3+ lymphocytes were isolated from the blood of haematologically normal volunteers. Cells placed into 25 cm^3 flasks at a concentration of 1×10^6/ml, and left to equilibrate in an incubator with a humidified atmosphere and 5% CO2 in air at 37° C. […] RNA extraction was performed using Trizol according to standard procedures, before being processed for microarray analysis according to the standard methodologies. Briefly, equal amounts of biotinylated cRNA was hybridised to the Illumina human HT12-v3 arrays for 18 h and subsequently processed according to manufacturer's instructions before scanning on an Illumina BeadArray Reader. The image data were processed using default values in GenomeStudio v2009.1 with imputation of missing data, before loading onto GeneSpring v9.0 for data normalisation and filtering. Data analyses were performed using Excel software, and the ratio of gene expression signals in treated vs. untreated calculated.

[2] = test system: 5-HT receptor 3A, transcript variant 1, mRNA (HTR3A); assay: Microarray gene expression in CD3+ lymphocytes, HTR3A transcript variant 1; conditions: naltrexone 10 nM, 4 h, probe 1681492
Method: as §1

[3] = test system: 5-HT receptor 2B, mRNA (HTR2B); assay: Microarray gene expression in CD3+ lymphocytes, HTR2B; conditions: 4 h, probe 1735764
Method: as §1

[4] = test system: 5-HT receptor 3A, transcript variant 2, mRNA (HTR3A); assay: Microarray gene expression in CD3+ lymphocytes, HTR3A transcript variant 2; conditions: 4 h, probe 2371079
Method: as §1

[5] = test system: 5-HT receptor 1E, mRNA (HTR1E); assay: Microarray gene expression in CD3+ lymphocytes, HTR1E; conditions: 4 h, probe 1794095
Method: as §1

[6] = test system: 5-HT receptor 4, transcript variant a, mRNA (HTR4); assay: Microarray gene expression in CD3+ lymphocytes, HTR4 transcript variant a; conditions: 4 h, probe 1676350
Method: as §1

[7] = test system: mRNA for one or more of 5-HT receptor proteins; assay: Microarray gene expression in CD3+ lymphocytes, overall statement; conditions: both higher dose and low dose naltrexone, 4 h
Method: as §1

## O=C1CC[C@@]2(O)[C@H]3Cc4ccc(O)c5c4[C@@]2(CCN3CC2CC2)[C@H]1O5 [NTX, morphinan-6-one,17-(cyclopropylmethyl)-4,5-epoxy-3,14-dihydroxy-(5α)]
[1]
  gene expression signal, LDN: 93.50
[2]
  gene expression signal, LDN: 94.00
[3]; naltrexone 10 nM
  gene expression signal, LDN: 147.45
[3]; naltrexone 10 uM
  gene expression signal, NTX: 177.95
[4]; naltrexone 10 nM
  gene expression signal, LDN: 124.70
[4]; naltrexone 10 uM
  gene expression signal, NTX: 151.75
[5]; naltrexone 10 nM
  gene expression signal, LDN: 101.20
[5]; naltrexone 10 uM
  gene expression signal, NTX: 95.70
[6]; naltrexone 10 nM
  gene expression signal, LDN: 100.20
[6]; naltrexone 10 uM
  gene expression signal, NTX: 96.10
[7]
  levels of mRNA for one or more of 5-HT receptor proteins: increase the levels of mRNA

Reference: patent US20250281481A1, “NALTREXONE FOR BOOSTING THE THERAPEUTIC UTILTY OF 5-HT RECEPTOR AGONISTS” (LDN Pharma Limited, priority 2021, published 2025)
